Results as given in patent US20250387481A1, “PRE-TREATED T CELLS FOR USE AS A MEDICAMENT” (STICHTING HET NEDERLANDS KANKER INSTITUUT-ANTONI VAN …, priority 2022, published 2025).

Columns and labels:
KB1P organoids = test: MTT measurement of KB1P organoid survival upon increasing doses of docetaxel; type: cell-based; details: Mus musculus, docetaxel for 72 h
Description: (§1) Breast cancer organoids were derived from K14-Cre; Brca1fl/fl; p53fl/fl mouse mammary tumors (KB1P (Kester, L., et al. Clin Cancer Res, 2022.)) and from MMTV-PyMT (Duarte, A. A., et al. Nat Methods, 2018. 15(2): p. 134-140) mouse mammary tumors. Both lines were cultured in 50 μl drops of Cultrex PathClear Reduced Growth Factor Basement Membrane Extract Type 2 (BME, Amsbio, 3533-005-02). KB1P organoids were cultured in Advanced Dulbecco's modified Eagle's medium (adDMEM/F12; Thermo Fisher Scientific. Cat. No. 12634-010) containing Hepes (10 mmol/L; Thermo Fisher Scientific, Cat. No. 15630-056), Penicillin/streptomycin (10,000 U/ml; Thermo Fisher Scientific, Cat. No. 15140-122), B27 (2% Thermo Fisher Scientific, Cat. No. 17504-044), N-acetylcysteine (1.25 mM; Sigma-Aldrich, Cat. No. A9165) and fibroblast growth factor (FGF, 12 ng/ml; Invitrogen, Cat. No. PHG0261). MMTV-PyMT organoids were cultured in DMEM/F12 GlutaMAX (Gibco, Cat. No 10565018) supplemented with 10 mmol/L Hepes (Gibco, Cat. No 15630106), Penicillin/streptomycin (10,000 U/ml; Thermo Fisher Scientific, Cat. No. 15140-122), B27 (2% Thermo Fisher Scientific, Cat. No. 17504-044) and fibroblast growth factor (FGF, 12 ng/ml; Invitrogen, Cat. No. PHG0261). […]
(§2) Following co-culture, medium was removed, and cultures were washed in PBS to remove T cells. […] Plates were read with a 565 nm wavelength.

KB1P tumors = test: Drug treatment in vivo of mice bearing KB1P tumors; set-up: species or system mouse
Description: (§3) For tumor generation, tumor organoids were transplanted into the 4th mammary fat pad of FVB female mice. Rimadyl (0.067 mg/ml, Zoetis) was administered to mice in the drinking water from 24 h before surgery and for 48 h after surgery. Mice were also treated with temgesic (0.1 mg/kg, Indivior Europe Limited), 1 hr before and 12 h after surgery. Mice were anesthetized with isoflurane (2%, v/v) and their eyes were covered with duratears (Alcon). About 100,000 single cells derived from KB1P organoids or 200,000 single cells derived from MMTV-PyMT organoids were injected in 30 μl of BME (Amsbio, Cat. No. 3533-005-02). Mice were weighed and monitored three times a week after transplantation of tumor organoids. Tumor volume was measured with calipers three times weekly. The researcher performing the measurement of tumor volume was blinded to the treatment group. For survival experiments, endpoint was reached when tumor reached 2000 mm3. For specific experiments, reference is made to the schematic representations of treatment timelines depicted in the figures.
Once tumors were established and reached a size of ˜7×7 mm, mice were randomized into treatment groups with the following drug dosages and timeline: • AC+T treatment: every 14 days, cyclophosphamide (144 mg/kg, administered via intraperitoneal injection), doxorubicin (5 mg/kg, administered via intravenous injection) and docetaxel (25 mg/kg, resuspended in acetonitrile containing 0.1% acetic acid, administered via intravenous injection). Doxorubicin hydrochloride (Adriamycin) and cyclophosphamide (C), when combined in a treatment, are herein referred to as “AC”. Taxanes, as broadly described and disclosed herein, are referred to as “T”. In one example, said taxane is docetaxel. • AC treatment: every 14 days, cyclophosphamide (144 mg/kg, administered via intraperitoneal injection) and doxorubicin (5 mg/kg administered via intravenous injection). • Docetaxel treatment: every 14 days, docetaxel (25 mg/kg, re-suspended in acetonitrile containing 0.1% acetic acid and administered via intravenous injections). • Vehicle control for chemotherapy: every 14 days, the same volume of the vehicle as the corresponding chemotherapy was administered to mice. […]

MMTV-PyMT organoids = test: MTT measurement of MMTV-PyMT organoid survival upon increasing doses of docetaxel; type: cell-based; details: Mus musculus, docetaxel for 72 h
Description: as §1, §2

MMTV-PyMT tumors = test: Drug treatment in vivo of mice bearing MMTV-PyMT tumors; set-up: species or system mouse
Description: as §3
Once tumors were established and reached a size of ˜7×7 mm, mice were randomized into treatment groups with the following drug dosages and timeline: • AC+T treatment: every 14 days, cyclophosphamide (144 mg/kg, administered via intraperitoneal injection), doxorubicin (5 mg/kg, administered via intravenous injection) and docetaxel (25 mg/kg, resuspended in acetonitrile containing 0.1% acetic acid, administered via intravenous injection). Doxorubicin hydrochloride (Adriamycin) and cyclophosphamide (C), when combined in a treatment, are herein referred to as “AC”. Taxanes, as broadly described and disclosed herein, are referred to as “T”. […]

[1] = depletion of CD4 alone, CD8 alone or both
[2] = docetaxel 25 mg/kg intravenous every 14 days vs vehicle
[3] = tumors isolated 24 h after the second docetaxel administration

**Q.** `CC(=O)O[C@@]12CO[C@@H]1C[C@H](O)[C@@]1(C)C(=O)[C@H](O)C3=C(C)[C@@H](OC(=O)[C@H](O)[C@@H](NC(=O)OC(C)(C)C)c4ccccc4)C[C@@](O)([C@@H](OC(=O)c4ccccc4)[C@H]21)C3(C)C` [docetaxel] was tested. Which IC50 (KB1P organoids) did it give?
**A.** 90.5 nM

**Q.** And the “anti-tumor effects of docetaxel (survival) upon T cell depletion” value (KB1P tumors; [1])?
**A.** abrogated the anti-tumor effects

**Q.** And the tumor outgrowth (KB1P tumors; [2])?
**A.** delayed tumor outgrowth

**Q.** What about the “CD4 and CD8 T cell infiltration (immunohistochemistry)” value (KB1P tumors; docetaxel vs vehicle) of the same compound?
**A.** enhanced CD4 and CD8 T cell infiltration

**Q.** What about the “accumulation of mitotic figures in tumors” value (KB1P tumors; [3]) of the same compound?
**A.** did not observe an accumulation of mitotic figures

**Q.** And the IC50 (MMTV-PyMT organoids)?
**A.** 130 nM

**Q.** What about the “anti-tumor effects of docetaxel (survival) upon T cell depletion” value (MMTV-PyMT tumors; [1]) of the same compound?
**A.** abrogated the anti-tumor effects

**Q.** And the tumor outgrowth (MMTV-PyMT tumors; [2])?
**A.** delayed tumor outgrowth

**Q.** And the “accumulation of mitotic figures in tumors” value (MMTV-PyMT tumors; [3])?
**A.** did not observe an accumulation of mitotic figures
